Test results reported in ChEMBL document CHEMBL5550101, “Inhibition of cancer cells by Quinoline-Based compounds: A review with mechanistic insights” (Bioorg Med Chem, 2024).

Experiments:
MCF7 [1] = assay: Antiproliferative activity against human MCF7 cells assessed as reduction in cell growth incubated for 48 hrs by SRB assay; assay type: functional, cell-based; settings: MCF7, 48 h
A549 [2] = assay: Antiproliferative activity against human A549 cells assessed as reduction in cell growth incubated for 48 hrs by MTT assay; assay type: functional, cell-based; settings: A549, 48 h
MCF7 [3] = assay: Cytotoxicity against human MCF7 cells assessed as reduction in cell growth measured for 48 hrs by SRB assay; assay type: functional, cell-based; settings: MCF7, 48 h
[4] = molecular target: Epidermal growth factor receptor (Homo sapiens, UniProt P00533); assay: Inhibition of EGFR (unknown origin)
Chain of Epidermal growth factor receptor (P00533 whole entry): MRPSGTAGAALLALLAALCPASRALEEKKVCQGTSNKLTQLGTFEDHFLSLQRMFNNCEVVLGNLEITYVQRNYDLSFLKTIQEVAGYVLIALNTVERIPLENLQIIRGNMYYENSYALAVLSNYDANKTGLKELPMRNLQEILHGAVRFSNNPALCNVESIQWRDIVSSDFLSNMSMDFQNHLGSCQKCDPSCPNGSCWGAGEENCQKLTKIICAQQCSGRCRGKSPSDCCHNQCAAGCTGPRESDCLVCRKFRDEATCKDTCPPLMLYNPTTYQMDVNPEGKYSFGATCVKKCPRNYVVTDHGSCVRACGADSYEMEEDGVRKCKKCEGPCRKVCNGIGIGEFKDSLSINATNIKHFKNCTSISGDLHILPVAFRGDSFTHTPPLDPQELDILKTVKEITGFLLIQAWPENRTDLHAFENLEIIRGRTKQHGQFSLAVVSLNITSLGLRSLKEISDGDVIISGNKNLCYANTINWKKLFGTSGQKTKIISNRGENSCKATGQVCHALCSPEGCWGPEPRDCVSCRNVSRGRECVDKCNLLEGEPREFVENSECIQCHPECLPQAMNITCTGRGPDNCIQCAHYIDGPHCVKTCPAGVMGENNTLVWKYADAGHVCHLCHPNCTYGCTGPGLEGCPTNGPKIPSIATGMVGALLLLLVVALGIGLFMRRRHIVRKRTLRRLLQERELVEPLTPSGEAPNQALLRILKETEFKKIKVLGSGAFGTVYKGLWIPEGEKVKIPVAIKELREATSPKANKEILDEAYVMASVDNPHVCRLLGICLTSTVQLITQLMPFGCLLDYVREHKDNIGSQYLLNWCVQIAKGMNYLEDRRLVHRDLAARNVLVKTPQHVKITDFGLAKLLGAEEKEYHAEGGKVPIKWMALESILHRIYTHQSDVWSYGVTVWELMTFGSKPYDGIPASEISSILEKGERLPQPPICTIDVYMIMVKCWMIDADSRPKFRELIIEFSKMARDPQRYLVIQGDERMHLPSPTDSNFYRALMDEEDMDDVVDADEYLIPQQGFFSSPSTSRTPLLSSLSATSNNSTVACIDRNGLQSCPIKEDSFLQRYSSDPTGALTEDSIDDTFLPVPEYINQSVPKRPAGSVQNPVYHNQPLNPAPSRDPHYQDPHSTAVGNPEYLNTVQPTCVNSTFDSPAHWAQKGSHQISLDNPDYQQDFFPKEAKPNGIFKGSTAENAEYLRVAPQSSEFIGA

[5] = molecular target: Platelet-derived growth factor receptor beta (Homo sapiens, UniProt P09619); assay: Inhibition of PDGFRbeta (unknown origin)
Chain of Platelet-derived growth factor receptor beta (P09619 whole entry): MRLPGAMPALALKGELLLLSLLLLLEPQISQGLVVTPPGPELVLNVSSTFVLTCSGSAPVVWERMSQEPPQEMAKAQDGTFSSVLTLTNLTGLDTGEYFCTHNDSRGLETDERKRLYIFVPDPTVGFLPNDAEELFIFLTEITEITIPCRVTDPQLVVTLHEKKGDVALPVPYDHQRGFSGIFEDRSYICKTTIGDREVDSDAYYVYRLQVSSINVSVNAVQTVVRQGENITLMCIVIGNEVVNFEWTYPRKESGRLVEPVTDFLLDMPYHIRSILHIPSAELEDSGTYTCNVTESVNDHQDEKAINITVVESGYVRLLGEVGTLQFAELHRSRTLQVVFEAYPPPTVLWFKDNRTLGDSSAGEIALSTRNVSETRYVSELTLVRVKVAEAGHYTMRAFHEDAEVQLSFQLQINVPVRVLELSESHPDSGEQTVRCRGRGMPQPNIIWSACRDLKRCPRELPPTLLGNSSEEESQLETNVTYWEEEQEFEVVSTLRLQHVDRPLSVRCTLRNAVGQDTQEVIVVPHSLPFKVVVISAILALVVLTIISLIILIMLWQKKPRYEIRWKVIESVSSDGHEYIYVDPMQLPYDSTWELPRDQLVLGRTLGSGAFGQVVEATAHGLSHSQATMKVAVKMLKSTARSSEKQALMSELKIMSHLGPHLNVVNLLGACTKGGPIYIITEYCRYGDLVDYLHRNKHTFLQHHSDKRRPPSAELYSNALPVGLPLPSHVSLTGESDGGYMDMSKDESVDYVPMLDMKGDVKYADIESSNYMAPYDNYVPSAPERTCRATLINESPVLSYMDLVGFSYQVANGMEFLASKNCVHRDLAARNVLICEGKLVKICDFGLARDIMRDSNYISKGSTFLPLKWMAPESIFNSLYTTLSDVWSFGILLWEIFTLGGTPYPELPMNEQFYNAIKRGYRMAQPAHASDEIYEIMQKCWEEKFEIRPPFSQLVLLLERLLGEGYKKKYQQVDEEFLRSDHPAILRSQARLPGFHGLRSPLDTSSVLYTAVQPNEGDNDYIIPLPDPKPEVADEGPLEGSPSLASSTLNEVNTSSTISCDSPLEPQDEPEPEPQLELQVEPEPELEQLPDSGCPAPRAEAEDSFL

OVCAR-3 = assay: Cytotoxicity against human OVCAR-3 cells assessed as cell growth inhibition by measuring lethal concentration by SRB assay; assay type: functional
SR = assay: Cytotoxicity against human SR cells assessed as cell growth inhibition by measuring lethal concentration by SRB assay; assay type: functional; settings: read-out: LC50 (the source's name)
PC-3 = assay: Cytotoxicity against human PC-3 cells assessed as cell growth inhibition by measuring lethal concentration by SRB assay; assay type: functional; settings: read-out: LC50 (the source's name)
M14 = assay: Cytotoxicity against human M14 cells assessed as cell growth inhibition by measuring lethal concentration by SRB assay; assay type: functional
MCF7 [6] = assay: Cytotoxicity against human MCF7 cells assessed as cell growth inhibition by measuring lethal concentration by SRB assay; assay type: functional
A498 = assay: Cytotoxicity against human A498 cells assessed as cell growth inhibition by measuring lethal concentration by SRB assay; assay type: functional
A549 [7] = assay: Cytotoxicity against human A549 cells assessed as cell growth inhibition by measuring lethal concentration by SRB assay; assay type: functional; settings: read-out: LC50 (the source's name)
HCT-116 = assay: Cytotoxicity against human HCT-116 cells assessed as cell growth inhibition by measuring lethal concentration by SRB assay; assay type: functional
[8] = molecular target: Hepatocyte growth factor receptor (Homo sapiens, UniProt P08581); assay: Inhibition of c-Met (unknown origin) by mobility shift assay
Chain of Hepatocyte growth factor receptor (P08581 whole entry): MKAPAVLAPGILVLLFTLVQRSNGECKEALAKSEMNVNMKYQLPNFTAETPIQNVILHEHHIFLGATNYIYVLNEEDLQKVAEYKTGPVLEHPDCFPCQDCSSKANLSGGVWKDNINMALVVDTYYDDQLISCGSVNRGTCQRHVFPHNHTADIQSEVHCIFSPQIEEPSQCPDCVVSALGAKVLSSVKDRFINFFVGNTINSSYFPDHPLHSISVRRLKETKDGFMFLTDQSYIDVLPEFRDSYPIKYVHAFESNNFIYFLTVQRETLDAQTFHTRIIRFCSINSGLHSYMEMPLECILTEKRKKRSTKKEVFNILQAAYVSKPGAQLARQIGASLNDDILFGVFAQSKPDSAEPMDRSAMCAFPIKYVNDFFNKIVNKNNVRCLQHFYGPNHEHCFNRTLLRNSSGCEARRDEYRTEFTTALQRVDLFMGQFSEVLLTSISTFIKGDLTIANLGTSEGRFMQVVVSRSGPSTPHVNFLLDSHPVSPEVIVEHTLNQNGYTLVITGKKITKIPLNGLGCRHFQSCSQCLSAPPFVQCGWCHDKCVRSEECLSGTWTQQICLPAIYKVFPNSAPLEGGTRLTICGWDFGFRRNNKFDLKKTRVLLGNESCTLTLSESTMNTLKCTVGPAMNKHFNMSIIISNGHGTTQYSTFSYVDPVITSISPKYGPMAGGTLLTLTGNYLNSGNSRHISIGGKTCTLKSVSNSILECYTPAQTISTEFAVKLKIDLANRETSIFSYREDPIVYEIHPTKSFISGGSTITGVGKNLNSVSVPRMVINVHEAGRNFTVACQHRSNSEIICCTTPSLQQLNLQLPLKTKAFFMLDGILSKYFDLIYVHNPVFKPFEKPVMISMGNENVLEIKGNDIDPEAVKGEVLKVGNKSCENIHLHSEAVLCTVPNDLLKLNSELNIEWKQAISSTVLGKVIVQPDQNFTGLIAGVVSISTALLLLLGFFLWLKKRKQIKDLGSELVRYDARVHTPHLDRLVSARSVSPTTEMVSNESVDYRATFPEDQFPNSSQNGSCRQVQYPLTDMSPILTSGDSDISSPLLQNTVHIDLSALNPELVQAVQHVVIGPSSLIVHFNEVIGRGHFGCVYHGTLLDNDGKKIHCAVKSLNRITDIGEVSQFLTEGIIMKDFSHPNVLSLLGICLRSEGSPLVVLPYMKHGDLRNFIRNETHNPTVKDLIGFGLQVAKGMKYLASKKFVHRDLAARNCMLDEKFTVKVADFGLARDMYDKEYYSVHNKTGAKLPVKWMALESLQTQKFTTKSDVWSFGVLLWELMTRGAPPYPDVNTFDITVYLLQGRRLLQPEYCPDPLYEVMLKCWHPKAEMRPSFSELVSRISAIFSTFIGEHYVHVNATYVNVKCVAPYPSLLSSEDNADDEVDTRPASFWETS

MCF7 [9] = assay: Cytotoxicity against human MCF7 cells assessed as reduction in cell growth incubated for 72 hrs by SRB assay; assay type: functional, cell-based; settings: MCF7, 72 h

`COc1ccc2nc(O)c(C3CC(c4ccc(C)cc4)=NN3C(C)=O)cc2c1` (stereo not drawn) showed an IC50 (MCF7 [1]) of 0.21 µM.

Compound `O=C(Cc1ccccc1)Nc1ccc2c(c1)CCCN2C(=O)c1ccc(Cl)cc1` has an IC50 (A549 [2]) of 0.97 µM.

`CCOC(=O)c1sc(N2N=C(c3ccc(C)cc3)CC2c2cc(Cl)nc3ccc(OC)cc23)nc1C` (stereo not drawn) gave an IC50 (MCF7 [1]) of 0.32 µM.

`COc1ccc(-c2c(C#N)c(N)nc3c2CCc2cc(OC)ccc2-3)cc1` was tested, and the IC50 (MCF7 [3]) was 12 µM.

`COc1ccc2c(c1)CCc1c-2[nH]c(=O)c(C#N)c1-c1ccc(OC)cc1OC` was tested, and the IC50 [4] was 0.13 µM and the IC50 (MCF7 [3]) was 7.21 µM.

For `CCOC(=O)C(=O)Nc1ccc2c(c1)CCCN2C(=O)c1ccc(Cl)cc1`, the IC50 (A549 [2]) was 0.15 µM.

In the case of `COc1ccc(-c2cc3ccc(OC)cc3nc2Nc2ccc(NC(=O)CN3CCN(C)CC3)cc2)cc1`, the IC50 [5] is reported as 5 µM.

For `COc1ccc2c(c1)CCc1c-2nc(N)c(C#N)c1-c1ccc(OC)cc1OC`, the IC50 [4] was 0.13 µM and the IC50 (MCF7 [3]) was 17.6 µM.

Compound `O=C(Cc1ccc([N+](=O)[O-])cc1)Nc1ccc2c(c1)CCCN2C(=O)c1ccc(Cl)cc1` has an IC50 (A549 [2]) of 0.06 µM.

With `CCCCCCOc1ccc(/C=N/Nc2cc(C)nc3ccc(Br)cc23)cc1` the LC50 (OVCAR-3) was 6.85 µM, the CC50 (SR) was > 100 µM and the CC50 (PC-3) was 5.84 µM. The LC50 (M14) was 6.67 µM, the LC50 (MCF7 [6]) was 6.84 µM and the LC50 (A498) was 6.03 µM. The CC50 (A549 [7]) was 6.61 µM and the LC50 (HCT-116) was 4.67 µM.

In the case of `CCCCCOc1ccc(/C=N/Nc2cc(C)nc3ccc(Cl)cc23)cc1`, the LC50 (OVCAR-3) is reported as 6.51 µM, the CC50 (SR) is reported as 4.2 µM and the CC50 (PC-3) is reported as 5.98 µM. For the same compound, the LC50 (M14) was 5.91 µM, the LC50 (MCF7 [6]) was 7.04 µM and the LC50 (A498) was 5.13 µM. The CC50 (A549 [7]) was 6.52 µM and the LC50 (HCT-116) was 5.02 µM.

In the case of `COc1ccc(-c2cc3cc(OC)ccc3nc2Nc2ccc(NC(=O)CN3CCN(C)CC3)cc2)cc1`, the IC50 [5] is reported as 5 µM.

For `CN1c2ccc(F)cc2SC1C(=O)Nc1cccc2c1N(Cc1ccc(OC3CCNCC3)cc1)CCC2` (stereo not drawn), the IC50 [5] was 1.13 µM.

With `COc1ccc2c(c1)CCc1c-2[nH]c(=O)c(C#N)c1-c1ccc(OC)c(OC)c1` the IC50 [4] was 0.13 µM and the IC50 (MCF7 [3]) was 13.7 µM.

In the case of `CCCCOc1ccc(/C=N/Nc2cc(C)nc3ccc(Cl)cc23)cc1`, the LC50 (OVCAR-3) is reported as 7.04 µM, the CC50 (SR) is reported as > 100 µM and the CC50 (PC-3) is reported as 6.55 µM. The LC50 (M14) was 8.07 µM, the LC50 (MCF7 [6]) was 6.87 µM and the LC50 (A498) was 5.67 µM. The CC50 (A549 [7]) was 6.35 µM and the LC50 (HCT-116) was > 100 µM.

`CCCCOc1ccc(/C=N/Nc2ccnc3ccc(Cl)cc23)cc1` was tested, and the IC50 [5] was 1.76 µM.

In the case of `CCc1[nH]nc(NC(=O)Cc2ccc(Oc3ccnc4cc(OC)ccc34)cc2OC)c1C`, the IC50 [8] is reported as 0.003 µM.

In the case of `Cc1ccc(Nc2c(C(N)=O)cnc3ccc(C(=O)/C=C/c4ccc(-c5ccc(Cl)cc5)o4)cc23)cc1`, the IC50 (MCF7 [9]) is reported as 3.35 µM.

For `COc1ccc(-c2c3c([nH]c(=O)c2C#N)-c2ccc(OC)cc2CC3)cc1`, the IC50 [4] was 0.13 µM and the IC50 (MCF7 [3]) was 18.1 µM.

In the case of `CCN(C(=O)c1cc(C(C)C)c(O)cc1O)c1cnc2ccccc2c1`, the IC50 [8] is reported as 0.17 µM.

In the case of `O=C(Cc1ccc(Br)cc1)Nc1ccc2c(c1)CCCN2C(=O)c1ccc(Cl)cc1`, the IC50 (A549 [2]) is reported as 0.65 µM.

Work on `COc1ccc2c(Oc3ccc(CC(=O)Nc4cn(C)nc4C)c(OC)c3)ccnc2c1` yielded an IC50 [8] of 0.004 µM.

With `CCCCCCOc1ccc(/C=N/Nc2cc(C)nc3ccc(Cl)cc23)cc1` the LC50 (OVCAR-3) was 6.83 µM, the CC50 (SR) was 8.11 µM and the CC50 (PC-3) was 5.83 µM. For the same compound, the LC50 (M14) was 6.26 µM, the LC50 (MCF7 [6]) was 6.97 µM and the LC50 (A498) was 6.55 µM. For the same compound, the CC50 (A549 [7]) was 7.22 µM.

`COc1ccc2nc(Cl)cc(C3CC(c4ccc(C)cc4)=NN3c3nc(C)c(C(=O)Nc4ccccc4)s3)c2c1` (stereo not drawn) showed an IC50 (MCF7 [1]) of 0.36 µM.

`CCCCOc1ccc(/C=N/Nc2ccnc3ccc(Br)cc23)cc1` was tested, and the IC50 [5] was 2.2 µM.

For `CCOc1ccc(/C=N/Nc2cc(C)nc3ccc(Cl)cc23)cc1`, the LC50 (OVCAR-3) was 6.36 µM, the CC50 (SR) was 15.5 µM and the CC50 (PC-3) was 6.54 µM. For the same compound, the LC50 (M14) was 5.55 µM, the LC50 (MCF7 [6]) was 6.6 µM and the LC50 (A498) was 7.01 µM. For the same compound, the CC50 (A549 [7]) was 6.94 µM.

`COc1ccc2nc(Cl)cc(C3CC(c4ccc(C)cc4)=NN3c3nc(C)c(NNc4ccccc4)s3)c2c1` (stereo not drawn) showed an IC50 (MCF7 [1]) of 0.41 µM.

For `CCCOc1ccc(/C=N/Nc2cc(C)nc3ccc(Cl)cc23)cc1`, the LC50 (OVCAR-3) was 6.44 µM, the CC50 (SR) was 38.6 µM and the CC50 (PC-3) was 6.39 µM. For the same compound, the LC50 (M14) was 6.17 µM, the LC50 (MCF7 [6]) was 6.9 µM and the LC50 (A498) was 5.79 µM. It also gave a CC50 (A549 [7]) of 6.49 µM and an LC50 (HCT-116) of 6.48 µM.

In the case of `Nc1ccc(CC(=O)Nc2ccc3c(c2)CCCN3C(=O)c2ccc(Cl)cc2)cc1`, the IC50 (A549 [2]) is reported as 0.22 µM.

Work on `CCOc1ccc(/C=N/Nc2ccnc3ccc(Br)cc23)cc1` yielded an IC50 [5] of 1.86 µM.

`CCCCOc1ccc(/C=N/Nc2cc(C)nc3ccc(Br)cc23)cc1` was tested, and the LC50 (OVCAR-3) was 7.18 µM, the CC50 (SR) was > 100 µM and the CC50 (PC-3) was 6.49 µM. The LC50 (M14) was 5.88 µM, the LC50 (MCF7 [6]) was 7.37 µM and the LC50 (A498) was 5.47 µM. The CC50 (A549 [7]) was 6.61 µM and the LC50 (HCT-116) was 6.17 µM.

With `COc1ccc2c(c1)CCc1c-2nc(N)c(C#N)c1-c1ccc(OC)c(OC)c1` the IC50 [4] was 0.13 µM and the IC50 (MCF7 [3]) was 14.5 µM.

For `COc1ccc2nc(Cl)cc(C3CC(c4ccc(C)cc4)=NN3c3nc(-c4ccccc4)cs3)c2c1` (stereo not drawn), the IC50 (MCF7 [1]) was 0.21 µM.

Compound `CC(=O)c1ccc2ncc(C(N)=O)c(Nc3ccc(OCc4ccccc4)cc3)c2c1` has an IC50 (MCF7 [9]) of 10.8 µM.

`COc1ccc2nc(Cl)cc(C3CC(c4ccc(C)cc4)=NN3c3nc(-c4ccc(Cl)cc4)cs3)c2c1` (stereo not drawn) showed an IC50 (MCF7 [1]) of 1.18 µM.

Work on `O=C(Nc1ccc2c(c1)CCCN2C(=O)c1ccc(Cl)cc1)c1cc(C(F)(F)F)cc(C(F)(F)F)c1` yielded an IC50 (A549 [2]) of 3.2 µM.

`N#Cc1c(-c2ccc3ncc(C(N)=O)c(Nc4cccc(Br)c4)c3c2)csc1N` showed an IC50 (MCF7 [9]) of 50.6 µM.

`CCCOc1ccc(/C=N/Nc2ccnc3ccc(Br)cc23)cc1` was tested, and the IC50 [5] was 1.83 µM.

`CCCCCOc1ccc(/C=N/Nc2cc(C)nc3ccc(Br)cc23)cc1` gave an LC50 (OVCAR-3) of 5.92 µM, a CC50 (SR) of 21.3 µM and a CC50 (PC-3) of 5.88 µM. It also gave an LC50 (M14) of 6.64 µM, an LC50 (MCF7 [6]) of 7.93 µM and an LC50 (A498) of 6.02 µM. The CC50 (A549 [7]) was 7.15 µM and the LC50 (HCT-116) was 6.35 µM.
